Results reported in the NIST ThermoML archive (doi:10.1021/je500381c).

Test: xn = mol fraction of the nth substance listed
Details: 100 kPa, Liquid; for mass density: Vibrating tube method

CC12CC3CC(C1)CC(C)(C3)C2 [1,3-dimethyladamantane] + CCCCCCCO
Details	mass density, 313.15 K [kg/m3]	mass density, 318.15 K [kg/m3]	mass density, 323.15 K [kg/m3]	mass density, 328.15 K [kg/m3]	mass density, 333.15 K [kg/m3]	viscosity, 313.15 K [mPa·s]	viscosity, 318.15 K [mPa·s]	viscosity, 323.15 K [mPa·s]	viscosity, 328.15 K [mPa·s]	viscosity, 333.15 K [mPa·s]
x2 = 0	–	883.77	880.19	876.6	873.01	2.458	2.237	2.045	1.876	1.728
x2 = 0.1001	–	877.24	873.55	869.84	866.11	2.347	2.121	1.925	1.754	1.603
x2 = 0.199	–	870.75	867.02	863.27	859.5	2.366	2.129	1.925	1.745	1.589
x2 = 0.2998	–	863.95	860.2	856.43	852.63	2.427	2.175	1.958	1.769	1.605
x2 = 0.3997	–	856.89	853.14	849.36	845.56	2.542	2.269	2.035	1.833	1.658
x2 = 0.4997	853.13	849.4	845.65	841.86	838.05	2.653	2.359	2.107	1.891	1.704
x2 = 0.6002	845.27	841.54	837.79	834.01	830.19	2.807	2.481	2.205	1.97	1.767
x2 = 0.7	836.88	833.18	829.46	825.68	821.88	3.001	2.636	2.329	2.069	1.847
x2 = 0.7996	828.01	824.33	820.62	816.87	813.08	3.22	2.813	2.472	2.184	1.938
x2 = 0.8999	818.46	814.8	811.12	807.4	803.64	3.45	3.002	2.626	2.311	2.044
